Assay results reported in article PMC12040169 (PLOS Biology, 2025).

Experiment: in vitro
Settings: human, hela cells, % viability

In order of rising viability at 28.5 h, 10 µM:
1. O=C(NCCCN1CCCC1=O)c1cnc(-c2ccc(Cl)cc2)c(-c2ccncc2)c1 [CBK037545]  74.8%
2. O=C(NC(NCc1ccc2c(c1)OCO2)(C(F)(F)F)C(F)(F)F)c1cccnc1 [CBK074397]  78.8%
3. CNCC1CCCN(C(=O)c2ccc(Oc3cccnc3)cc2)C1 (stereo not drawn) [CBK304479]  83.2%
4. COCCN(Cc1cnn(C)c1)C(=O)c1cc(=O)c2cccc(F)c2[nH]1 [CBK306651]  83.8%
5. Cc1cc(C)n2c(SCC(=O)c3ccccc3)nnc2n1 [CBK265378]  84.3%
6. COc1cc(CNC2CCCc3c2cnn3C)c(O)c(C(C)(C)C)c1 (stereo not drawn) [CBK304716]  84.4%
7. c1ccc(-c2nc3ccccc3nc2N2CCNCC2)cc1 [CBK269574C]  85%
8. Cc1ccc(C(=O)Nc2ccc3[nH]ccc3c2)cc1Cl [CBK159677]  85.5%
9. Cc1cc2c(s1)c1cnn(Cc3ccncc3)c(=O)c1n2C [CBK284188]  86.4%
10. O=C1CC(Cl)Sc2sc3ccccc3c21 (stereo not drawn) [CBK006551]  86.6%
11. Cc1ccc(C(=O)N/C(=C\c2cccc([N+](=O)[O-])c2)c2n[nH]c(=S)[nH]2)cc1 [CBK263114]  87%
12. CCCN1CCN(C(=O)c2cnc(C)cn2)C(Cc2cccc(-c3cccs3)c2)C1=O (stereo not drawn) [CBK285678]  87.2%
13. COc1ccc2oc(=O)c(C(=O)Nc3cccc(O)c3)cc2c1 [CBK270070]  87.3%
14. COc1ccc(CCNC(=O)NS(=O)(=O)c2ccc(C)cc2)cc1OC [CBK300510]  88%
15. COCCNC(=O)Cn1nnc(-c2ccc(OC)cc2)n1 [CBK069349]  88.1%
16. CCn1c(SCC(N)=O)nnc1C(C)Oc1ccc(C)c(C)c1 (stereo not drawn) [CBK270289]  88.4%
17. COc1cc(OC)c(CN(C)CCN(C)C)cc1Br [CBK021255]  88.6%
18. O=C(O)CCC(=O)NCC1OCCc2ccccc21 (stereo not drawn) [CBK265865]  89%
19. CCN1CC2(CCN(Cc3ncc[nH]3)CC2)c2ccccc21 [CBK131486]  89.1%
20. COc1cccc(NC(=O)NCc2ccc(F)cc2)c1 [CBK115590]  90.2%
21. COc1ncccc1C(=O)Nc1ccc(C)nc1C [CBK200292]  90.6%
22. C=CCn1c(C)c(C)n2c3c(=O)n(CCN4CCOCC4)c(=O)n(C)c3nc12 [CBK269778]  90.8%
23. COc1ccc(C(C)NC(=O)C2CCCCC2C(=O)O)cc1OC (stereo not drawn) [CBK270309]  91.1%
24. O=C(NCCOc1ccccc1)c1nccnc1-c1ccc(COc2ccc3c(c2)CCCC3)cc1 [CBK050852]  91.2%
25. COCCN1C(=O)/C(=C2/C(=O)N(CC(=O)Nc3ccccc3)c3ccccc32)SC1=S [CBK264489]  91.3%
26. Cc1cc2nc(C3CCCN3C(=O)CN3CCCCC3)[nH]c2cc1C (stereo not drawn) [CBK282944]  91.3%
27. O=C(NCc1cccs1)C1CCCN1c1nc(O)cc(C(F)(F)F)n1 (stereo not drawn) [CBK004299]  91.3%
28. Cc1ccc(C(=O)COC(=O)CCN2C(=O)C3C4CCC(C4)C3C2=O)cc1[N+](=O)[O-] (stereo not drawn) [CBK264096]  91.5%
29. O=C(Cc1nnn[nH]1)N1CCCC2(CCN(C(=O)c3ccoc3)C2)C1 (stereo not drawn) [CBK137077]  91.8%
30. N#Cc1c(NC(=S)NC(=O)c2ccc(-c3cccc([N+](=O)[O-])c3)o2)sc2c1CCCC2 [CBK268471]  92%
31. CCOC(=O)C(CNC(=O)CNC(=O)c1ccoc1)Cc1ccccc1 (stereo not drawn) [CBK305971]  92.4%
32. Cc1cc(-c2cncc(-c3ccc(O)cc3)n2)ccc1S(=O)(=O)N1CCOCC1 [CBK131460]  92.4%
33. Clc1ccc(CN2CCC(Oc3nccnc3OCCN3CCOCC3)CC2)cc1 [CBK082918T]  92.5%
34. COc1ccccc1N1CCN(C(=O)c2ccccc2C(=O)c2ccccc2)CC1 [CBK091506]  92.9%
35. CCc1ccc(C2CC(=O)c3c(ccc4ccccc34)N2)cc1 (stereo not drawn) [CBK098787]  93.8%
36. COc1ncc(-c2cnc(N)c(-c3ccc(C=O)cc3)n2)c(OC)n1 [CBK064110]  94.1%
37. O=S(=O)(O)c1cc(O)c2c(S(=O)(=O)O)cc(S(=O)(=O)O)cc2c1 [CBK278164N]  94.9%
38. COCCCNCCSc1ccc(Cl)cc1 [CBK265093]  95%
39. COc1cc(C(=O)O)ccc1OCC(=O)Nc1ccc(F)cc1 [CBK287101]  95.5%
40. COC(=O)CN1C(=O)CC2(C1=O)C(=O)N(Cc1ccccc1)c1ccc(F)cc12 (stereo not drawn) [CBK075143]  95.7%
41. COc1cc(CN2CCN(Cc3ccccc3F)CC2)cc(OC)c1O [CBK264219]  95.9%
42. O=C(C/C=N/OCc1ccccc1)c1sccc1Cl [CBK021611]  96%
43. COc1ccc(-c2c[nH]c([C@@H]3COCCN3Cc3cccc(C#N)c3)n2)cc1 [CBK289298]  96%
44. Cc1ccc(-c2noc(CN3CCN(C(c4ccccc4)c4ccccc4)CC3)n2)cc1 [CBK266425]  96.5%
45. O=C(Cc1ccc(Cl)cc1)NC(=S)Nc1ccccc1O [CBK263905]  96.6%
46. O=C(CC1CC1)Nc1snnc1-c1ccc(Cl)cc1 [CBK153239]  97%
47. O=C(O)c1c[nH]c2ccc(S(=O)(=O)N3CCOCC3)cc12 [CBK011237]  97.3%
48. O=C(Cn1cnnn1)N1CCc2ccccc21 [CBK200367]  97.4%
49. CC(=O)N1CCC(C(=O)NC(=O)NCCOc2ccccc2Cl)CC1 [CBK034842]  97.9%
50. CNc1cc(C(=O)N[C@@H]2CCOC[C@H]2Oc2ccc(CO)cc2)ccn1 [CBK306606]  98.1%
51. CS(=O)(=O)N(CC(=O)Nc1ccccc1C(=O)N1CCOCC1)c1ccc(F)c(Cl)c1 [CBK267931]  98.1%
52. COCCN1C(=O)C2(CC(=O)N(CCNS(C)(=O)=O)C2=O)c2cc(C)ccc21 (stereo not drawn) [CBK075479]  98.2%
53. CC(C)(C)OC(=O)NCc1ccc(-c2cc(NC3CCCCC3)ncn2)cc1 [CBK090898]  98.5%
54. NS(=O)(=O)c1ccc(C(=O)Nc2cnc(-c3ccc(F)cc3)c(-c3ccsc3)n2)cc1 [CBK036998]  98.8%
55. COC1CCC(C(=O)Nc2cnc(-c3ccc(F)c(Cl)c3)c(-c3ccc(C(C)=O)s3)n2)CC1 (stereo not drawn) [CBK036718]  99.3%
56. O=C(O)CCc1nn2c3ccccc3n(CC(=O)c3cccs3)c2nc1=O [CBK267518]  99.8%
57. O=C(Nc1cccnc1)c1ccnc(Cl)c1 [CBK089829]  100%
58. COc1cc(Nc2cncc(-c3ccc(O)cc3)n2)c(Cl)cc1C(=O)NCC1CCCO1 (stereo not drawn) [CBK126468]  100%
59. COc1cc(/C=N/c2ccc(O)c(-c3nc4ccccc4s3)c2)ccc1OC(=O)c1ccc(Cl)cc1Cl [CBK261243]  101%
60. O=c1cc(N2CCN(c3ccccc3)CC2)[nH]c(=O)n1-c1ccccc1Cl [CBK287506]  101%
61. CSc1ccccc1NC(=O)CN(c1ccc(F)cc1)S(=O)(=O)c1ccc2c(c1)OCCO2 [CBK266836]  101%
62. O=C(NC1CCCCC1)c1ccc(-c2ccccc2)nc1NCCc1ccccn1 [CBK076553]  101%
63. CC(=O)N1CC2(CCN(C(=O)C(C)(C)C)CC2)Nc2ccccc21 [CBK284448]  102%
64. c1ccc(-n2nnnc2CSc2nc3ccccc3s2)cc1 [CBK266372]  102%
65. O=C(Cn1cnc2c(c1=O)CCCC2)Nc1ccc(Cl)c(Cl)c1 [CBK304655]  102%
66. COc1ccc(C2CC(c3ccc4ccccc4c3)=NN2C(=O)COc2ccccc2C(=O)O)cc1 (stereo not drawn) [CBK297503]  102%
67. COCCOc1nccnc1N1CCNCC1 [CBK001903G]  103%
68. O=C(NCCN1CCCC1)c1cnc2cc(C(F)(F)F)ccc2c1O [CBK107426]  104%
69. Oc1ccc2ccccc2c1/C=N/c1ccc(-c2cc(-c3ccc(/N=C/c4c(O)ccc5ccccc45)cc3)ncn2)cc1 [CBK261621]  104%
70. Nc1ncnc2c1ncn2CCN1CCOCC1 [CBK269049]  104%
71. CCOCCn1c(CN2CCOCC2)nc2c1c(=O)n(C)c(=O)n2C [CBK306062]  105%
72. Cc1ccc2[nH]c(/C(C#N)=C\c3cn(CC(=O)Nc4ccccc4)c4ccccc34)nc2c1 [CBK267612]  105%
73. Cc1ccc(N2C(=O)CSC2c2ccc(Cl)cc2Cl)cc1 (stereo not drawn) [CBK025673]  105%
74. O=C1CC(C(=O)Nc2ccccc2)NC(Nc2cc(Cl)cc(Cl)c2)=N1 (stereo not drawn) [CBK268752]  106%
75. CN(C)CCCN1C(=O)C(O)=C(C(=O)c2ccncc2)C1c1ccccc1 (stereo not drawn) [CBK287779]  107%
76. COc1ccc([C@@]23CC[C@@H](NC(=O)c4ccc(C(F)(F)F)c(F)c4)C[C@@H]2CN(C)C3)cc1OC [CBK082742C]  107%
77. O=C(Nc1ccccc1)NC1CC2CCC(C1)N2Cc1nnnn1Cc1ccco1 (stereo not drawn) [CBK085071]  107%
78. Cc1cc(C2CCCCCN2C(=O)c2c(Cl)cnn2C)on1 (stereo not drawn) [CBK283045]  108%
79. CCn1nc(-c2ccc(Cl)cc2)c2c(=O)n(C)c(=O)[nH]c21 [CBK287845]  108%
80. Cc1nc(CC(=O)N2[C@H]3CCCCCN(C)[C@@]3(C)C[C@H]2c2ccccc2)cs1 [CBK286104]  109%
81. COc1ccc(-c2cn(-c3ccc(OC(F)(F)F)cc3)nn2)cc1 [CBK113024]  110%
82. O=C(COc1cccc2ccccc12)NNC(=O)Cc1ccc(Cl)cc1 [CBK262988]  112%
83. CC(O)(CC#N)c1ccccc1 (stereo not drawn) [CBK028508]  114%
84. CCOC(=O)C1CCN(C(=O)c2cccnc2NCc2ccc3c(c2)OCO3)CC1 [CBK160106]  118%

Same assay, conditions: human, hela cells, % viability, bulk resorufin, single well

In order of falling viability at 28.5 h, 10 µM:
1. CCOc1cccc(N2C(=O)/C(=C\c3ccc(-c4ccc(C(=O)O)c(Cl)c4)o3)C(=O)NC2=S)c1 [CBK263403]  92.1%
2. COc1cc(C(=O)Nc2ccc3c(c2)COC2(CCN(C(=O)OC(C)(C)C)CC2)O3)cc(OC)c1OC [CBK091527]  85.9%
3. COc1ccc(CCn2nc(C(=O)O)c3ccccc32)cc1 [CBK093525]  85%
